In patent US20230117470A1, “SUBSTITUTED PYRAZOLE COMPOUNDS AS TOLL RECEPTOR INHIBITORS” (BRISTOL-MYERS SQUIBB COMPANY, priority 2019, published 2023) one finds IC50 data, which are given here for 19 molecules.

What all share (assay type): cell-based
The target in one test is T1, human TLR7 (Homo sapiens, UniProt Q9NYK1).
T1 construct: host or cells: HEK-Blue cells
T1 sequence (Q9NYK1 27-1049): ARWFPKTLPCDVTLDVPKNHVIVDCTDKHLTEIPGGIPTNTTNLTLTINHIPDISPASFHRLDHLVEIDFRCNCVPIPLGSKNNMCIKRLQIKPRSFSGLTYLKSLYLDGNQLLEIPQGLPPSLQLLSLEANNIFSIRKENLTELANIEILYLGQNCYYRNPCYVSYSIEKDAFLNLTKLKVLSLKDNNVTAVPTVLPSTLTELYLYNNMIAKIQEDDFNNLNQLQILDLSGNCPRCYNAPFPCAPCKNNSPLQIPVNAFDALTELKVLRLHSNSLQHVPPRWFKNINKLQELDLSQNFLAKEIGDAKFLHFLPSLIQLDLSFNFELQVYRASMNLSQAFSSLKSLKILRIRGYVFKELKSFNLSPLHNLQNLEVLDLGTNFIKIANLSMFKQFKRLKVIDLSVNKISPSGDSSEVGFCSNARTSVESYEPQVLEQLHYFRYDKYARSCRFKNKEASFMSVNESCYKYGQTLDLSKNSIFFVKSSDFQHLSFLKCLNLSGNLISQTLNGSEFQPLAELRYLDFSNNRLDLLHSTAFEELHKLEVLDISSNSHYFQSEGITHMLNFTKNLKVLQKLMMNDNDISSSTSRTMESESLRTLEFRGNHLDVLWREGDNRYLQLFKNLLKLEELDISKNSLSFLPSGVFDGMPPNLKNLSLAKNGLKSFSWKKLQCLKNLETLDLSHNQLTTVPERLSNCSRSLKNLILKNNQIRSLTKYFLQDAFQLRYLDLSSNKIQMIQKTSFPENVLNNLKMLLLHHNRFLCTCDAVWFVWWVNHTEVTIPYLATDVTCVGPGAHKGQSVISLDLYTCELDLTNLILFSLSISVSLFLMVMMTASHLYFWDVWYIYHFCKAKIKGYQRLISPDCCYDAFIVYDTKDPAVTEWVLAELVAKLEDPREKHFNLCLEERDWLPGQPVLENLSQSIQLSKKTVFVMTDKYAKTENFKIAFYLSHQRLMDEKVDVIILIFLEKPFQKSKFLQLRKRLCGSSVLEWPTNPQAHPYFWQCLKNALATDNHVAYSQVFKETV
In words: TLR7 inhibition reporter assay (HEK-Blue cells, SEAP reporter, gardiquimod stimulation). Conditions: HEK-Blue cells overexpressing human TLR7, SEAP reporter, gardiquimod 7.5 μM. The essentials:
(§1)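 30 min RT cpd pre-incubation (0.05 nM–50 μM final dose response) → agonist: gardiquimod 7.5 μM / R848 15.9 μM / ODN2006 5 nM for TLR7/8/9 resp. → 22 h, 37° C → SEAP via detection medium. % inhibition vs agonist+DMSO and reference inhibitor controls.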

In the next test the target is T2, human TLR9 (Homo sapiens, UniProt Q9NR96).
T2 construct: host or cells: HEK-Blue cells
T2 sequence (Q9NR96 26-1032): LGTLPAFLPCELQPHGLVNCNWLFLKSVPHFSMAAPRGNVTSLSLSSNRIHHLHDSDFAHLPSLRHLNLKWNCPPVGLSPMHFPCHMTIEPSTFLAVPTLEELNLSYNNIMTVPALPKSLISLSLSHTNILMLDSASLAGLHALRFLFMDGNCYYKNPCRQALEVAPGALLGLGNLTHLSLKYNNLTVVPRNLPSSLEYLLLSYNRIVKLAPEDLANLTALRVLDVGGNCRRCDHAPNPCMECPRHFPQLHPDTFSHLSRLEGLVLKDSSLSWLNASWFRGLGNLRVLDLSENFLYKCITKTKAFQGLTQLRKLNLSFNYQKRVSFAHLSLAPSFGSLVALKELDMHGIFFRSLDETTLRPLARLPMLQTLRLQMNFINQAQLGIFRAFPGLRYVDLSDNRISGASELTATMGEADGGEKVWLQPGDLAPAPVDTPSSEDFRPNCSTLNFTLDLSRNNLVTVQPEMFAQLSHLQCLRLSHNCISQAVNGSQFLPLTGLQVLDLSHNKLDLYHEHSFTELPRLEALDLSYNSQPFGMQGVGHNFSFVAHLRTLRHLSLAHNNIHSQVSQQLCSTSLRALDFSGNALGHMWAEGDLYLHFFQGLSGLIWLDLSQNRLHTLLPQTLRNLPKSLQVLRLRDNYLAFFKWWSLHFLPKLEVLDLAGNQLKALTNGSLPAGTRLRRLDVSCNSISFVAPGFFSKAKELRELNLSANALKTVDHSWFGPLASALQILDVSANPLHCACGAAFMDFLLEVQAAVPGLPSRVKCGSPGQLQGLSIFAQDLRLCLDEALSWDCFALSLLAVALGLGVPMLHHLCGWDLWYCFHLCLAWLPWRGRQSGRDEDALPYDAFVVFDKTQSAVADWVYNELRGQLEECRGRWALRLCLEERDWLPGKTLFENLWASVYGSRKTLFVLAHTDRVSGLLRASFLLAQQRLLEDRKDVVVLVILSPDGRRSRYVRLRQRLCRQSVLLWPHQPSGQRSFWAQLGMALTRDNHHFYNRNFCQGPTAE
Put plainly: TLR9 inhibition reporter assay (HEK-Blue cells, SEAP reporter, ODN2006 stimulation). Conditions: HEK-Blue cells overexpressing human TLR9, SEAP reporter, ODN2006 5 nM. The essentials: as §1

The target of another test is T3, human TLR8 (Homo sapiens, UniProt Q9NR97).
T3 construct: host or cells: HEK-Blue cells
T3 sequence (Q9NR97 27-1041): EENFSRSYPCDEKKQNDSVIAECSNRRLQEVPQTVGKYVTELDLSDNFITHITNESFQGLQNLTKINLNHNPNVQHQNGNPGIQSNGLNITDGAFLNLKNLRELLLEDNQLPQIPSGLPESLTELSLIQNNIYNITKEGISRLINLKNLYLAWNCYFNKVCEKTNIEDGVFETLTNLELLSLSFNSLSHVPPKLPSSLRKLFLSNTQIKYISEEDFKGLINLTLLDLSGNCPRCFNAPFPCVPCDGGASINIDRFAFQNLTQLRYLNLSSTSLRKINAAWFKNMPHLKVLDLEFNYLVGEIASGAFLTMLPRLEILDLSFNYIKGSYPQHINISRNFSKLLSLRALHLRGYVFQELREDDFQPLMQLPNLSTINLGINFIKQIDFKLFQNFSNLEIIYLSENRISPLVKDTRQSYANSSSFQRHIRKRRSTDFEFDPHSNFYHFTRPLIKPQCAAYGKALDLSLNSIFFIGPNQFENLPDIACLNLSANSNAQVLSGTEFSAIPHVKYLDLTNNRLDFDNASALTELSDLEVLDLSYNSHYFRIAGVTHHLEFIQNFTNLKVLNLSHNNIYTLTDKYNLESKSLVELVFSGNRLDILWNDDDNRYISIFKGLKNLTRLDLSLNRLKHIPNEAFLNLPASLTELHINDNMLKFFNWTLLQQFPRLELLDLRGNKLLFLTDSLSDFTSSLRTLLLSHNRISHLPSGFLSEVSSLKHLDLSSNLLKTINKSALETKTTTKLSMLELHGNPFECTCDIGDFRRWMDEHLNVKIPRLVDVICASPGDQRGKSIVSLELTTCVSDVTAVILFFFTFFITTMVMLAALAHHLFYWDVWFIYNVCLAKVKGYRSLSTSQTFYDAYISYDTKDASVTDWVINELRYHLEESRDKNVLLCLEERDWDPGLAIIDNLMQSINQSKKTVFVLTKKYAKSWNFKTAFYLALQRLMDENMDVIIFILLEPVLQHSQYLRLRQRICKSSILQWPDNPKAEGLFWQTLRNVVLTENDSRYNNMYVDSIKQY
Put plainly: TLR8 inhibition reporter assay (HEK-Blue cells, SEAP reporter, R848 stimulation). Conditions: HEK-Blue cells overexpressing human TLR8, SEAP reporter, R848 15.9 μM. Summed up:
as §1

Each structure is given as a SMILES string.

For the molecule `COc1cc(-c2[nH]nc(-c3cnc(C4CCN(C(=O)CN(C)C)CC4)cn3)c2C(C)C)cn2ncnc12` [Example 403], the IC50 on human TLR7 was 26.9 nM; at human TLR9, over 50000 nM; on human TLR8, 156 nM.

As to `CCN(CC)CC(=O)N1CCC(c2cnc(-c3n[nH]c(-c4cc(OC)c5ncnn5c4)c3C(C)C)cn2)CC1` [Example 404], the IC50 is 43.6 nM at human TLR7, over 50000 nM on human TLR9 and 124 nM against human TLR8.

In the case of `Cc1cc(-c2[nH]nc(-c3ccc(N4CC(N(C)C)C4)cc3)c2C(C)C)cn2ncnc12` [Example 405, 1-(4-(4-isopropyl-5-(8-methyl-[1,2,4]triazolo[1,5-a]pyridin-6-yl)-1H-pyrazol-3-yl)phenyl)-N,N-dimethylazetidin-3-amine], the half-inhibitory concentration (IC50) on human TLR7 amounted to 77.5 nM; at human TLR9, 37700 nM; at human TLR8 it was 215 nM.

Take `Cc1cc(-c2[nH]nc(-c3ccc(N4CCNCC4)cc3)c2C(C)C)cn2ncnc12` [Example 406]: the half-maximal inhibitory concentration (IC50) was 2.74 nM against human TLR7, over 50000 nM at human TLR9 and 142 nM against human TLR8.

On to `Cc1cc(-c2[nH]nc(-c3cnc(N4CCNCC4)nc3)c2C(C)C)cn2ncnc12` [Example 407], for which the 50% inhibitory concentration (IC50) against human TLR7 is 28.6 nM; on human TLR9, over 50000 nM; against human TLR8, 279 nM.

`Cc1cc(-c2[nH]nc(-c3ccc(N4CCN(CC(C)(C)C)CC4)cc3)c2C(C)C)cn2ncnc12` [Example 408]: the IC50 against human TLR7 is 47.4 nM; at human TLR9, over 50000 nM; on human TLR8, 168 nM.

As for `Cc1cc(-c2[nH]nc(-c3ccc(N4CC(NC(C)C)C4)cc3)c2C(C)C)cn2ncnc12` [Example 409], the IC50 stood at 48.2 nM against human TLR7, 9760 nM on human TLR9 and 345 nM against human TLR8.

Regarding `CNC(=O)CN1CCC(NC(=O)c2n[nH]c(-c3cc(C)c4ncnn4c3)c2C(C)C)CC1` [compound 177], the concentration for half-maximal inhibition (IC50) against human TLR7 came out at 3.23 nM; at human TLR9 it was 9790 nM; against human TLR8, 5.63 nM.

On to `Cc1c(C(=O)NC2CCN(C)CC2)n[nH]c1-c1cc(C)c2ncnn2c1` [compound 180], for which the results for the IC50 against human TLR7, against human TLR9 and against human TLR8 were 3.54 nM, 5280 nM and 3.7 nM, respectively.

Consider `CCc1c(C(=O)NC2CCN(C(C)C)CC2)n[nH]c1-c1cc(C)c2ncnn2c1` [compound 182], for which the IC50 was 1.74 nM against human TLR7, 13500 nM against human TLR9 and 0.76 nM at human TLR8.

As to `Cc1cc(-c2[nH]nc(C(=O)NC3CCNCC3)c2CC(F)(F)F)cn2ncnc12` [compound 194], the values for the IC50 on human TLR7, against human TLR9 and at human TLR8 were 0.9 nM, 9220 nM and 0.37 nM, respectively.

In the case of `Cc1cc(-c2[nH]nc(C3CCN(C(C)C)CC3)c2C(C)C)cn2ncnc12` [compound 207], the values for the IC50 on human TLR7, against human TLR9 and at human TLR8 were 2.92 nM, 20700 nM and 0.31 nM, respectively.

Consider `Cc1cc(-c2[nH]nc(C3CCN(C(=O)CN(C)C)CC3)c2C(C)C)cn2ncnc12` [compound 209], for which the half-maximal inhibitory concentration (IC50) at human TLR7 was 0.32 nM; against human TLR9, 4170 nM; at human TLR8, 0.14 nM.

On to `Cc1cc(-c2[nH]nc(C3CCN(C(=O)CCNC(C)C)CC3)c2C(C)C)cn2ncnc12` [compound 210], for which the half-maximal inhibitory concentration (IC50) is 1.8 nM against human TLR7, 23800 nM against human TLR9 and 1.24 nM against human TLR8.

For `Cc1cc(-c2[nH]nc(C3CCN(CC(=O)N(C)C)CC3)c2C(C)C)cn2ncnc12` [compound 212], the IC50 on human TLR7 was 0.62 nM; on human TLR9, 7390 nM; on human TLR8, 0.63 nM.

In the case of `Cc1cc(-c2[nH]nc(C3CCC(N(C)C(=O)C4CNC4)CC3)c2C(C)C)cn2ncnc12` (stereo not drawn) [compound 301], the IC50 against human TLR7 was 7.77 nM; at human TLR9, 12300 nM; at human TLR8 it was 1.53 nM.

As for `COc1cc(-c2[nH]nc(-c3ccc(C4CCNCC4)cc3)c2C(C)C)cn2ncnc12` [compound 308], the IC50 stood at 0.18 nM on human TLR7, 15800 nM against human TLR9 and 0.09 nM on human TLR8.

Regarding `COc1cc(-c2[nH]nc(-c3ccc(C4CCN(CC(N)=O)CC4)cc3)c2C(C)C)cn2ncnc12` [compound 322], the results for the IC50 on human TLR7, against human TLR9 and against human TLR8 were 15.7 nM, 35800 nM and 4.67 nM, respectively.

Regarding `COc1cc(-c2[nH]nc(-c3ccc(C4CN(C(=O)CN(C)C)C4)cc3)c2C(C)C)cn2ncnc12` [compound 335], the results for the IC50 against human TLR7, against human TLR9 and against human TLR8 were 15.5 nM, over 50000 nM and 11.1 nM, respectively.
